Experimental data from patent US20110021575A1, “PENETRATION ENHANCERS FOR INSECTICIDAL AGENTS” (priority 2006, published 2011).

Assay: Penetration test: penetration of active substance through enzymatically isolated apple leaf cuticles in diffusion cells
Assay type: in vitro ADME, apple trees of the Golden Delicious variety
Details: cuticular penetration of imidacloprid, at 20° C., 60%, imidacloprid 0.3 g/l (ai alone) or 0.2 g/l (with surfactant), mean values of 5-8 repetitions
Protocol: In this test, the penetration of active substances through enzymatically isolated cuticles of apple tree leaves was measured.
Leaves which were cut off in the stage of full development of apple trees of the Golden Delicious variety were used. The isolation of the cuticles was effected in a manner such that • first leaf discs marked on the underside with dye and punched out were filled by means of vacuum infiltration with a pectinase solution (0.2 to 2% strength) buffered to a pH between 3 and 4, • sodium azide was then added and • the leaf discs thus treated were allowed to stand until disintegration of the original leaf structure and detachment of the noncellular cuticle.
Thereafter, only those cuticles of the upper sides of the leaves which were free of staltoa and hairs were further used. They were washed several times alternately with water and a buffer solution at pH 7. The clean cuticles obtained were finally drawn onto small Teflon plates and smoothed and dried with a gentle air jet.
In the next step, the cuticle membranes thus obtained were placed in stainless steel diffusion cells (=transport chambers) for membrane transport investigations. For this purpose, the cuticles were placed by means of forceps centrally on the silicone grease-coated edges of the diffusion cells and closed with a likewise greased ring. The arrangement was chosen so that the morphological outside of the cuticles faced outwards, i.e. towards the air, while the original inside faced the interior of the diffusion cell. The diffusion cells were filled with water or with a mixture of water and solvent. […]
After the application of the spray liquors, in each case the water was allowed to evaporate, and in each case the chambers were then turned around and were placed in thermostated trays, air having a defined temperature and atmospheric humidity being blown onto the outside of the cuticle. […] The active substance penetration was measured with radioactively marked active substance.

**Q.** What does the source list for O=[N+]([O-])NC1=NCCN1Cc1ccc(Cl)nc1 [Imidacloprid (ai), imidacloprid]?
**A.** Penetration after 5 hours (after 5 hours): 0.1%; Penetration after 1 day (after 1 day): 0.3%; Penetration after 2 days (after 2 days): 0.5%
